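Dose response: 5 concentrations. Exposure: 48 h. Format: 96-well plates. Endpoint: linear interpolation; highest concentration if not reached. TGI marks complete inhibition of growth.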
Assays:
Experiment in all cases: NCI-60 cell line screen, 48 h
LOX IMVI melanoma = system: LOX IMVI melanoma
EKVX NSCLC = system: EKVX NSCLC
MALME-3M melanoma = system: MALME-3M melanoma
HT29 colon = system: HT29 colon
KM20L2 colon = system: KM20L2 colon
DMS 114 small cell lung = system: DMS 114 small cell lung
M19-MEL melanoma = system: M19-MEL melanoma
UO-31 renal = system: UO-31 renal
LXFL 529 NSCLC = system: LXFL 529 NSCLC
SK-MEL-5 melanoma = system: SK-MEL-5 melanoma
RXF-631 renal = system: RXF-631 renal
UACC-257 melanoma = system: UACC-257 melanoma
RXF 393 renal = system: RXF 393 renal
COLO 205 colon = system: COLO 205 colon
IGROV1 ovarian = system: IGROV1 ovarian
NCI-H23 lung = system: NCI-H23 lung
HOP-92 NSCLC = system: HOP-92 NSCLC
XF 498 CNS = system: XF 498 CNS
MOLT-4 leukemia = system: MOLT-4 leukemia
SN12C renal = system: SN12C renal
DMS 273 small cell lung = system: DMS 273 small cell lung
OVCAR-8 ovarian = system: OVCAR-8 ovarian
NCI-H522 lung = system: NCI-H522 lung
OVCAR-3 ovarian = system: OVCAR-3 ovarian
SK-MEL-28 melanoma = system: SK-MEL-28 melanoma
786-0 renal = system: 786-0 renal
SF-295 CNS = system: SF-295 CNS
SF-268 CNS = system: SF-268 CNS
A498 renal = system: A498 renal
TK-10 renal = system: TK-10 renal
UACC-62 melanoma = system: UACC-62 melanoma
HOP-62 NSCLC = system: HOP-62 NSCLC
NCI-H226 lung = system: NCI-H226 lung
KM12 colon = system: KM12 colon
K-562 leukemia = system: K-562 leukemia
SF-539 CNS = system: SF-539 CNS
ACHN renal = system: ACHN renal
SK-OV-3 ovarian = system: SK-OV-3 ovarian
SNB-78 CNS = system: SNB-78 CNS
SW-620 colon = system: SW-620 colon
SK-MEL-2 melanoma = system: SK-MEL-2 melanoma
DLD-1 colon = system: DLD-1 colon
M14 melanoma = system: M14 melanoma
A549 NSCLC = system: A549 NSCLC
RPMI-8226 leukemia = system: RPMI-8226 leukemia
SNB-75 CNS = system: SNB-75 CNS
HCC-2998 colon = system: HCC-2998 colon
U251 CNS = system: U251 CNS
NCI-H460 lung = system: NCI-H460 lung
CCRF-CEM leukemia = system: CCRF-CEM leukemia
OVCAR-5 ovarian = system: OVCAR-5 ovarian
CAKI-1 renal = system: CAKI-1 renal
OVCAR-4 ovarian = system: OVCAR-4 ovarian
SNB-19 CNS = system: SNB-19 CNS
HCT-15 colon = system: HCT-15 colon

Measured: TGI

COC(=O)c1cc2c(=O)n(C)c3ccccc3n2c1C(=O)OC
51.3 µM: XF 498 CNS
58.8 µM: U251 CNS
36.9 µM: HOP-62 NSCLC
78.2 µM: EKVX NSCLC
81.2 µM: NCI-H226 lung
75.8 µM: SF-539 CNS
37.3 µM: SNB-75 CNS
50.3 µM: 786-0 renal
73.7 µM: NCI-H522 lung
77.4 µM: TK-10 renal
66.8 µM: SK-OV-3 ovarian
> 100 µM: all other assays above

Source: PubChem BioAssay (NCI)
